{
  "source": "patent US12350308B2",
  "about": "“Phosphorylcholine conjugates and uses thereof” (TPCERA LTD., priority 2013, dated 2025)",
  "key": {"[1]": {"system": "splenocytes of NZBW/F1 female mice", "assay": "Cytokine secretion in-vitro by splenocytes of lupus mice treated with TD-PC", "type": "in vivo", "conditions": "vs PBS", "description": "NZBW/F1 female mice having lupus were treated with TD-PC (SEQ ID NO: 25 conjugated to PC) or the corresponding control treatments. Mice were sacrificed at week 30, and their splenocytes were studied in-vitro for the expression of pro-inflammatory cytokines (IFNγ, IL-17) and anti-inflammatory (TGFβ, IL-10) cytokines using RT-PCR. […] In contrast, TD-PC increased the mRNA expression of the anti-inflammatory cytokine TGFβ in the (p<0.001) compared to the mRNA expressed by splenocytes derived from PBS-treated mice (FIG. 24A).\nHowever, a prominent increase in anti-inflammatory cytokines (TGFβ, IL-10) secretion in-vitro by splenocytes derived from TD-PC treated mice is illustrated in FIG. 24B. […] IFNγ secretion upon tuftsin derivative (SEQ ID NO: 25) or PC treatments was reduced by 2.5 and 1.5 times respectively (p<0.03 and p<0.04, respectively)."}, "[2]": {"system": "IL-10+CD25+CD1d+ Breg cells", "assay": "Breg expansion in splenocytes of mice with established CIA (FACS)", "type": "in vivo", "conditions": "isolated splenocytes; PBS 0.4%", "description": "The mean percentage of Breg cells in isolated splenocytes following treatment with TD-PC, PBS, TD (SEQ ID NO: 25), PC, TD+PC and None was measured within IL-10+CD25+CD1d+ subset. […] Representative data of IL-10+CD25+CD1d+ levels in splenocytes derived from TD-PC, PBS, TD (SEQ ID NO: 25), PC and TD+PC treated mice gating on IL-10+ B cells, are presented in FIG. 34A."}},
  "note": "*1 amine or outer side, *2 acyl side, *3 side chain or, on linkers, in order; H or OH if unused. Where a SMILES comes first, the peptide text is derived from it. [ ]: non-standard residue; d: D form. X1 = C[N+](C)(C)CCOP(=O)([O-])Oc1ccc(N=Nc2cc(C[C@H](N[*:1])C(=O)[*:2])ccc2O)cc1",
  "data": [
    {"smiles": "C[C@@H](O)[C@H](N)C(=O)N[C@@H](CCCCN)C(=O)N1CCC[C@H]1C(=O)N[C@@H](CCCNC(=N)N)C(=O)NCC(=O)N[C@@H](Cc1ccc(O)c(N=Nc2ccc(OP(=O)([O-])OCC[N+](C)(C)C)cc2)c1)C(=O)O", "note": "[TD-PC, Thr-Lys-Pro-Arg-Gly-Tyr-PC] (H-TKPRG[X1]-OH)", "values": [
      {"measurement": "IL-17 secretion from splenocytes", "setting": "[1]; in vitro", "result": "significant decline"},
      {"measurement": "IL-10 secretion by splenocytes", "setting": "[1]; in-vitro", "result": "remarkably increased"},
      {"measurement": "TGFβ production by splenocytes", "setting": "[1]; in-vitro", "result": "significantly upregulated"},
      {"measurement": "reduction of splenocyte secretion of IFNγ", "setting": "[1]; in-vitro", "result": 5.2, "unit": "times"},
      {"measurement": "mean percentage of IL-10+CD25+CD1d+ Breg cells", "setting": "[2]", "result": 13.73, "unit": "%"}
    ]}
  ]
}
